This is an account of results in patent US11299715B2, “Use of iNOS inhibitors to increase viral yield in culture” (priority 2013, dated 2022).

In one test the test system is NOS3 = eNOS. Briefly: Affymetrix Gen Array, NOS3 expression in 293 cells. Format: cell-based, human. To be noted: probe 205581_s_at. On the procedure: Confluent 293 cells (2.4×10^6 cells in a 75 cm^2 flask) were cultured in DMEM+10% FCS for approximately 20 hrs and were then infected with one plaque forming unit per cell (PFU/cell) of HSV-1 MacIntyre Strain for 90 min. ATA at a concentration 20 μM (final) was added 90 min post-infection. The infected cells were harvested at 24 h after infection. Total RNA of sufficient quality and quantity was isolated from suspension using RNeasy Plus Mini Kit (QIAGEN, Valencia, Calif.) according to the manufacturer's instructions. Whole genome expression profiling was performed on Affymetrix Human U133 Plus 2.0 Array by the Asuragen, Inc. 3 μg total RNA was provided as input material.
Overall, RNA quality assessed on the bioanalyzer had RIN values of >9. Array hybridization and scaling factors were within passing quality control range. After scanning, raw expression CEL files were processed with Affymetrix Expression Console vs.1.1.2 (affymetrix.com). Each CEL file was processed with Robust Multichip Analysis (RMA) and a summarized table was exported as a text file. All downstream genomics and statistical analyses were done with JMP Genomics (version 5) (jmp.com/software/genomics). First, a filtering step was applied to filter-out low expression, specifically, those values below 6 in log^2 mode in at least 2 out of 8 samples. […]

The test system of a further test is rAAV-GFP vector. Briefly: rAAV production by rHSV-rep2/cap2 and rHSV-EGFP co-infection of 293 cells. Type of test: cell-based, AAV. On the procedure:
293 cells (2.5×10^6) were simultaneously co-infected with both rHSV-rep2/cap2 and rHSV-EGFP vectors as described by Kang et al., Gene Ther (2009) 16:229-239. At 2-4 hr post infection, infectious medium was exchanged with DMEM+10% FBS equivalent to double the preinfection culture volume. At the time of harvest, the cell pellet was frozen at −80° C. DRP titers were quantified by real-time polymerase chain reaction (qPCR) in a96-well block thermocycler (Applied Biosystems; 7500 Real Time PCR system). Crude samples were subjected to three cycles of freezing and thawing, then incubated in the presence of Benzonase (250 U/ml), 2 mM MgCl2, 1% final concentration protein grade Tween 80 (Calbiochem) and incubated at 37° C. for 60 min, followed by 0.25% Trypsin (Gibco) digestion at 50° C. for 60 min. Finally, treatment with DNase I (50 U/ml; Promega) at 37° C. for 30 min, and then denatured at 95° C. for 20 min. Linearized plasmidpDC67/+SV40 was used to generate standard curves. The primer-probe set was specific for the simian virus 40 (SV40) poly(A) sequence: rAAV-F: 5′-[…]-3′ (SEQ ID NO:4); rAAV-R: 5′-[…]-3′ (SEQ ID NO:5); rAAV-Probe: 5′ 6-FAM-[…]-TAMRA-3′ (SEQ ID NO:6).
In order to determine whether the presence of ATA during HSV production impacted the yield of rAAV virions produced using HSV vectors, the following experiment was performed showing rAAV titers affected by ATA residue present from rHSV-1 stocks produced in 293 cells (FIG. 5A). […] One-way ANOVA; Tukey's-test:*p<0.05; 20 μM ATA vs. No ATA; n=4 independent experiments.
This effect was not observed when the ATA concentrations were higher then 20 μM (FIG. 5B).

The structures appear in SMILES notation.

For `O=C(O)C1=CC(=C(c2ccc(O)c(C(=O)O)c2)c2ccc(O)c(C(=O)O)c2)C=CC1=O` [ATA, 5-((3-carboxy-4-hydroxyphenyl)(3-carboxy-4-oxo-2,5-cyclohexadien-1-ylidene)methyl)-2-hydroxybenzoic acid], the “NOS3 expression, ATA” value in the test with NOS3 = eNOS (ATA alone) came out at 1.24. In addition, in the test on NOS3 = eNOS (HSV + ATA, HSV alone 2.45), the “NOS3 expression, HSV + ATA” value is recorded as 1.94. Besides, the “rAAV titer, ATA spiked into 293 cell media during co-infection” value in the test with rAAV-GFP vector (10 μM ATA, 2 hrs co-infection step) is recorded as “increase”. For the same compound, in the test with rAAV-GFP vector (20 μM ATA added during infection), the “rAAV titers using HSV stock prepared with 20 μM ATA” value is given as “slightly increased”. Further, the “rAAV titer increase at higher spiked ATA concentrations” value in the test with rAAV-GFP vector (ATA higher than 20 μM spiked into 293 cell media) was “not observed”. In the test on rAAV-GFP vector (ATA present in rHSV-1 stocks), the “influence of ATA in rHSV-1 stocks on rAAV yield” value was “did not negatively influence”. The “increase of rAAV DRP/ml titer versus No ATA control” value in the test on rAAV-GFP vector (rHSV-rep2/cap2 stock prepared with 20 μM ATA (Step 1), about 3 μM ATA during rAAV production, n=4) was 1.3 times. In addition, in the test on rAAV-GFP vector (stock prepared with 12 μM ATA, n=4), the “rAAV titer with rHSV-rep2/cap2 stock prepared with 12 μM ATA” value was “No significant rAAV titer increase”.
